The source of these data is patent US20100168112A1, “2-Substituted and 4-substituted aryl nitrone compounds” (RENOVIS, INC., priority 2004, published 2010).

The nature of data set [1]: Pharmacokinetic evaluation following intravenous and oral administration in rats. The class given is in vivo. The settings on record: male, Sprague-Dawley; for Cmax / Tmax / bioavailability: 5 mg/kg; for Cmax: rat plasma; for Cmax / Tmax: oral gavage, 2 mg/mL at 2.5 mL/kg; for clearance / Vd / Tmax / bioavailability / half-life: plasma, rat; for clearance / Vd / half-life: 1 mg/kg; for clearance / Vd: intravenous administration, 1 mg/mL at 1.0 mL/kg; for clearance: read-out: CI (clearance) (converted); for Vd: read-out: Vd (volume of distribution); for bioavailability: po 2 mg/mL at 2.5 mL/kg vs iv 1 mg/mL at 1.0 mL/kg, dose-normalized, read-out: F (%) oral bioavailability; for half-life: intravenous, read-out: T1/2 elimination half life (converted). The method, then:
Male Sprague-Dawley rats were given at least 24 hours acclimation before experiment initiation. During acclimation period, all animals received food and water ad libitum. However, food (not water) was removed from the animal's cages up to 12 hours before initiation of the experiment. During the first 4 hours of experimentation, the animals received only water ad libitum. Two to three animals for iv and three animals for oral administration were tested. For iv formulation nitrone compounds of this invention were dissolved (1 mg/mL) in a mixture of 5% dimethyl acetamide (v/v), 0 to 4% Tween 80 (v/v), 10 to 40% PEG 400 (v/v) and the rest percentage of water (v/v). For oral formulation nitrone compounds of this invention were dissolved (2 mg/mL) in a mixture of 4% of 10% Tween in water and 96% of 0.5% carboxymethyl cellulose (medium viscosity) in water; or 4% of 10% Tween in water, 48% of 0.5% carboxymethyl cellulose (medium viscosity) in water, and 48% of 0.5% Hydroxypropyl Methylcellulose/0.2% Sodium Lauryl Sulfate in water. These formulations were stored at 5° C. until the experiment. Formulations were then stir-mixed at least half an hour before dosing. Exactly 200 μL of each left-over formulation was diluted with CH3CN/H2O for concentration analysis. The animals were weighed before dosing. The body weight was used to calculate the true dose for each animal:
IV dosing: • Dose volume (mL)=1.0 mL/kg The intravenous dose was administered through the jugular vein catheter or tail vein in less than 1 minute.
PO dosing: • Dose volume (mL)=2.5 mL/kg The oral dose was administered by oral gavage.
For IV dosing, blood samples were collected (using a pre-heparinized syringe) via the carotid artery or jugular vein catheter at t=2, 5, 15, 30, 60, 120, 180, 360, and 480 minutes post dosing. For PO dosing, blood samples were collected (using a pre-heparinized syringe) via the carotid artery or jugular vein catheter before dosing and at t=5, 15, 30, 60, 120, 180, 360, and 480 minutes post dosing. For some nitrone compounds a 1440 minutes (24 hours) sample was also taken for both IV and PO administrations. About 250 μL of blood was obtained at each time point from the animals. Equal volumes of 0.9% normal saline were replaced to prevent dehydration. The whole blood samples were maintained on ice until centrifugation. Blood samples were then centrifuged at 14,000 rpm for 10 minutes at 4° C. and the upper plasma layer transferred into a clean vial and stored at −80° C. The resulting plasma samples were then analyzed by mass spectroscopy using standard methods.
All the samples from above assays were analyzed on a PE-Sciex API 3000 triple quadrupole with a Turbo Ion Spray source. Nitrone compounds of this invention were separated from the matrix via a linear gradient reverse-phase chromatography using a C18 column, such as Thermo BDS Hypersil C18 (100×4.6 mm, 5 micron particle, 120A pore size). The mobile Phases were:
Nitrone compounds were detected by the mass spectrometer in the positive ion multiple reaction monitoring mode (MRM). For quantitative analysis, a standard curve was prepared by spiking a stock solution of the nitrone compound to the appropriate matrix to achieve a quantitation curve range and analyzed the standards in the same manner as the samples.
Pharmacokinetic parameters of the aryl nitrone compounds were determined by a noncompartmental analysis using WinNonlin-Pro (Version 4.1, Pharsight Corporation). Average and standard deviation of the parameters were calculated using standard formulas in Microsoft Excel.

Data set [2] can be described thus: DPPH free radical-scavenging/antioxidant assay. The class given is biochemical. As to conditions: 50 μM DPPH in 80% methanol; 24 h time point; read-out: EC50 (concentration at which a compound reduces by 50% the peak absorbance of DPPH at 520 nm). The method, then: Nitrone compounds of the present invention were tested for their free-radical scavenging/antioxidant activity in an in vitro assay that is accepted by those skilled in the art as a model for conditions involving the generation of free radicals. The assay is based on a reaction between a free-radical donor, 2,2-diphenyl-1-picrylhydrazyl (DPPH), and a radical scavenger/antioxidant to be tested for free-radical scavenging activity. Upon donation of the free-radical electron to the purported radical scavenger, the peak visible absorbance of DPPH (515-520 nm) decreases so that optical density readings at this part of the visual spectrum reflect the progression of the following reaction:
where AH is a hypothetical radical scavenger/antioxidant. The assay is based on a protocol originally detailed in Brand-Williams, W. et al., 1995, Use of a Free Radical Method to Evaluate Antioxidant Activity, Lebensm. Wiss. Technol., 28:25-30, with further modifications described in L. R. Fukumoto and G. Mazza, 2000, Assessing Antioxidant and Prooxidant Activities of Phenolic Compounds, J. Agric. Food Chem., 48:3597-3604.
The antioxidant assay was performed using Perkin-Elmer 96-well, clear-bottom, black-wall plates (ordered from E & K Scientific Products) and a Tecan Safire absorbance plate reader. The positive controls were Trolox (6-hydroxy-2,5,7,8-tetramethylchromane-2-carboxylic acid, Sigma-Aldrich), BHA (2(3)-tert-butylhydroquinone monomethyl ether, Sigma-Aldrich), PBN (C-(phenyl)-N-(tert-butyl)nitrone, Sigma-Aldrich) and S-PBN (C-(2-sulfophenyl)-N-(tert-butyl)nitrone, sodium salt, prepared according to E. G. Janzen and R. V. Shetty, 1979, Tetrahedron Lett., 35: 3229-32), and the negative control (i.e., vehicle) was DMSO. In brief, 2 μL of 100× DMSO stock of the desired final concentration of each control or nitrone compound to be tested in the same batch was added to a separate well. To each well was then added 198 μL of a freshly made 50 μM DPPH (Sigma-Aldrich) solution in 80% methanol using a multi-channel pipette. The absorbance was immediately read on the plate reader at 520 nm and thereafter read periodically to assess kinetics until all reactions reached completion (i.e., steady state). Since the steady-state point was 24 h, the assay results are shown from the 24 h time point. The absorbance at 520 nm (OD) was plotted versus the concentrations of the controls and nitrone compounds to assess dose-response and interpolate the EC50 values of the controls and test compounds.
For orientation: The DPPH test is a chemical assay of radical scavenging.

Structures can show the parent of a compound that is named as a salt.

Consider `CC(C)(C)/[N+]([O-])=C/c1ccc(S(=O)(=O)N2CCCCC2)cc1` [Compound 28, N-(tert-Butyl)-C-[4-(piperidine-1-sulfonyl)phenyl]nitrone], for which, in data set [1], the Cmax (usually the highest concentration seen after dosing) stood at 134 ng/mL; the clearance is 19 mL/min/kg; the Vd stood at 19.9 L/kg; the Tmax (as a rule, the time from dosing to the highest level) came to 64.8 min. In data set [1], the bioavailability (in general, dose-corrected exposure relative to a reference, in per cent) amounted to 13.8% and the half-life is 782 min. The EC50 in data set [2] is above 1000 µM. For the compound `COC(=O)c1[nH]c2ccccc2c1/C=[N+](\[O-])C(C)(C)C` [Compound 77, N-(tert-Butyl)-C-[2-(methoxycarbonyl)-1H-indol-3-yl]nitrone], the EC50 in data set [2] is above 1000 µM. Turning to `CC(C)(C)/[N+]([O-])=C/c1ccc(S(=O)(=O)Nc2ccc(F)cc2)cc1` [Compound 25, N-(tert-Butyl)-C-[4-(4-fluoro-phenylsulfamoyl)phenyl]nitrone], in data set [1], the highest level (Cmax) was 10 ng/mL, the clearance is 29.3 mL/min/kg, the Vd was 1.12 L/kg and the Tmax came out at 15 min. For the same compound, in data set [1], the bioavailability was 0.85% and the half-life was 25.8 min. The EC50 in data set [2] was above 1000 µM. Consider `CC(C)(C)[N+]([O-])=Cc1ccccc1` [PBN, C-(phenyl)-N-(tert-butyl)nitrone, reference compound], for which, in data set [2], the EC50 is above 1000 µM. As to `O=C(O)c1ccccc1/C=[N+](\[O-])Cc1ccccc1` [Compound 9, N-Benzyl-C-(2-carboxyphenyl)nitrone], the EC50 in data set [2] fell in the range of 10 to 100 µM. Turning to `CCNS(=O)(=O)c1ccc(/C=[N+](\[O-])C(C)(C)C)cc1` [Compound 24, N-(tert-Butyl)-C-[4-(ethylsulfamoyl)phenyl]nitrone], in data set [1], the concentration peaked (Cmax) at 198 ng/mL, the clearance was 59 mL/min/kg, the Vd was 2.58 L/kg and the Tmax is 12 min. In addition, in data set [1], the bioavailability was 7.19% and the half-life is 31.2 min. The EC50 in data set [2] was above 1000 µM.

In the case of `COC(=O)c1ccccc1/C=[N+](\[O-])C(C)(C)C` [Compound 1, N-(tert-Butyl)-C[2-(methoxycarbonyl)phenyl]nitrone], in data set [2], the EC50 is 500 to 1000 µM. Still for that read-out and setting: the value for `COC(=O)c1c(/C=[N+](\[O-])C2CCCCC2)cc(OC)cc1OC` [Compound 5, N-Cyclohexyl-C-[2-(methoxycarbonyl)-3,5-dimethoxyphenyl]-nitrone] was 100 to 500 µM. Still for that read-out and setting: with `CC(C)(C)/[N+]([O-])=C/c1ccccc1C(=O)O` [Compound 7, N-(tert-Butyl)-C-(2-carboxyphenyl)nitrone] the figure was 100 to 500 µM; with `COC(=O)c1c(/C=[N+](\[O-])C(C)(C)C)cc(OC)cc1OC` [Compound 4, N-(tert-Butyl)-C-[2-(methoxycarbonyl)-3,5-dimethoxyphenyl]-nitrone], 100 to 500 µM.

`CN(C)C(=O)c1ccccc1/C=[N+](\[O-])C(C)(C)C` [Compound 16, N-(tert-Butyl)-C-[2-(N,N-dimethylcarbamoyl)phenyl]nitrone]: the EC50 in data set [2] was in the range of 100 to 500 µM. Take `COC(=O)c1[nH]c2ccccc2c1/C=[N+](\[O-])Cc1ccccc1` [Compound 79, N-Benzyl-C[2-(methoxycarbonyl)-1H-indol-3-yl]nitrone]: the EC50 in data set [2] is above 1000 µM.

Regarding `COC(=O)c1ccccc1/C=[N+](\[O-])Cc1ccccc1` [Compound 3, N-Benzyl-C-[2-(methoxycarbonyl)phenyl]nitrone], the EC50 in data set [2] lay within 500 to 1000 µM.

As for `O=C(O)c1ccccc1/C=[N+](\[O-])C1CCCCC1` [Compound 8, N-Cyclohexyl-C-(2-carboxyphenyl)nitrone], the EC50 in data set [2] lay within 10 to 100 µM. On the same count and under the same terms, with `COc1cc(/C=[N+](\[O-])Cc2ccccc2)c(C(=O)O)c(OC)c1` [Compound 12, N-Benzyl-C-(2-carboxy-3,5-dimethoxyphenyl)nitrone] the figure was 10 to 100 µM; with `COc1cc(/C=[N+](\[O-])C(C)(C)C)c(C(=O)O)c(OC)c1` [Compound 10, N-(tert-Butyl)-C-(2-carboxy-3,5-dimethoxyphenyl)nitrone], 500 to 1000 µM. On the same count and under the same terms, with `COC(=O)c1ccccc1/C=[N+](\[O-])C1CCCCC1` [Compound 2, N-Cyclohexyl-C-[2-(methoxycarbonyl)phenyl]nitrone] the figure was above 1000 µM.

In the case of `CC(C)(C)[N+]([O-])=Cc1ccccc1S(=O)(=O)O` [SPBN, C-(2-sulfophenyl)-N-(tert-butyl)nitrone, sodium salt, reference compound], the EC50 in data set [2] is above 1000 µM.

For `Cc1c(C)c2c(c(C)c1O)CCC(C)(C(=O)O)O2` (centres unmarked) [Trolox, 6-hydroxy-2,5,7,8-tetramethylchromane-2-carboxylic acid, reference compound], the EC50 in data set [2] is below 10 µM. Same read-out and setting: the value for `COC(=O)c1c(/C=[N+](\[O-])Cc2ccccc2)cc(OC)cc1OC` [Compound 6, N-Benzyl-C-[2-(methoxycarbonyl)-3,5-dimethoxyphenyl]-nitrone] was 100 to 500 µM.

As to `COc1cc(/C=[N+](\[O-])C2CCCCC2)c(C(=O)O)c(OC)c1` [Compound 11, N-Cyclohexyl-C-(2-carboxy-3,5-dimethoxyphenyl)nitrone], in data set [2], the EC50 is 10 to 100 µM. Same read-out and setting: with “2(3)-tert-butylhydroquinone monomethyl ether [BHA, reference compound]” the figure was below 10 µM; with `COC(=O)c1[nH]c2ccccc2c1/C=[N+](\[O-])C1CCCCC1` [Compound 78, N-Cyclohexyl-C-[2-(methoxycarbonyl)-1H-indol-3-yl]nitrone], above 1000 µM.
